Data reported in publication PMC6792352, “Limited Chemical Structural Diversity Found to Modulate Thyroid Hormone Receptor in the Tox21 Chemical Library” (Environmental Health Perspectives, 2019).
Where a name gives a salt, the structure may show the parent alone. Read-outs that look alike come from different tables or passages of the source.

Columns and labels:
[1] = tested on: thyroid hormone receptor (TR); test: Classification of TR actives across characterization assays (TR-Ag / RXR-Ag; TR model binary); set-up: key to Categorization Code: FP, false positive; details: TR agonist characterization
How it was run: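 GH3-TRE qHTS agonist, antagonist and viability modes over 8,305 compounds; 84 candidates rescreened in GH3-TRE-Ag, TRβ- and RXRα-UAS-bla HEK 293T one-hybrid assays, HEK293T viability, and TRα/TRβ coactivator recruitment. Actives classified binary after removing pharmaceuticals.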

GH3-TRE-Luc cell line [2] = test: GH3-TRE-Via cell viability, CellTiter-Fluor (TOX21_TR_LUC_GH3_Antagonist_viability, aeid 805)
[3] = tested on: thyroid hormone receptor (endogenous TRα and TRβ); test: GH3-TRE-Ag-Followup confirmation (TOX21_TR_LUC_GH3_Agonist_Followup, aeid 2226); assay type: cell-based, rat; details: for GH3-TRE-Ag-Followup hitc: hit call from tcpl; for AC50: read-out: GH3-TRE-Ag-Followup AC50
GH3-TRE-Luc cell line [4] = tested on: GH3-TRE-Luc cell line
[5] = tested on: Tox21 cell viability assays (different cell types); test: Global cytotoxicity: eighteen Tox21 cell viability assays; assay type: cell-based
[6] = tested on: thyroid hormone receptor (endogenous TRα and TRβ); test: GH3-TRE-Ag primary qHTS, luciferase reporter, agonist mode (TOX21_TR_LUC_GH3_Agonist, aeid 803); assay type: cell-based, rat; details: for GH3-TRE-Ag AC50 hitc: hit call from tcpl; for AC50: read-out: GH3-TRE-Ag AC50
[7] = biological target: T1, TRα ligand-binding domain (Homo sapiens, UniProt P10827); test: TRa-coa LanthaScreen TR-FRET coactivator (SRC-2 peptide) recruitment, agonist (TOX21_TRA_COA_Agonist_Followup_ratio, aeid 2230); assay type: biochemical; details: for AC50 / TRa-coa hitc: agonist; for AC50: read-out: TRa-coa AC50; for TRa-coa hitc: hit call from tcpl; for Emax: read-out: EMax (% of Control) tra-coa-agonist-followup-1
T1 construct: the receptor LBDs expressed as glutathione S-transferase (GST) fusion proteins; purchased
T1 sequence (P10827 163-410 isoform P10827-2 limits assumed, other chains not shown): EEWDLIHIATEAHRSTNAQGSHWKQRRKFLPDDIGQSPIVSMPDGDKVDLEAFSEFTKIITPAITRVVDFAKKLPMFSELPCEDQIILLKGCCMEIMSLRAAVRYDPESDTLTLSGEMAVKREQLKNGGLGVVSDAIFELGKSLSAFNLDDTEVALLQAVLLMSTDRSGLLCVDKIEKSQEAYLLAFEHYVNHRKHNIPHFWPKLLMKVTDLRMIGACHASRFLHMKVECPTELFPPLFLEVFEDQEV

[8] = biological target: T2, human TRβ ligand-binding domain (Homo sapiens, UniProt P10828); test: TRb-bla agonist mammalian one-hybrid beta-lactamase assay (TOX21_TRB_BLA_Agonist_Followup_ratio, aeid 2236); assay type: cell-based; set-up: host or cells: GeneBLAzer UAS-bla HEK 293T; details: for AC50 / TRb-bla hitc: agonist; for AC50: read-out: TRb-bla AC50; for TRb-bla hitc: hit call from tcpl; for Emax: read-out: EMax (% of Control) trb-bla-agonist-followup-1
T2 sequence (P10828 217-461 limits assumed): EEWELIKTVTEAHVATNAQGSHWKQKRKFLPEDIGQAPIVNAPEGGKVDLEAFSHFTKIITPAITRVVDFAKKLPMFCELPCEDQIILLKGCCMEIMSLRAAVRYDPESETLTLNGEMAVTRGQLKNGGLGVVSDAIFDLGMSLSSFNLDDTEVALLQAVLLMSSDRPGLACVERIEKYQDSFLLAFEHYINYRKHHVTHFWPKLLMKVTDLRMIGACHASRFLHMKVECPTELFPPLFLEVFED

in vitro = details: rat, gh3-tre-luc cells
human RXRα = biological target: T3, human RXRα (Homo sapiens, UniProt P19793); test: RXRa-bla-Ag mammalian one-hybrid beta-lactamase assay (TOX21_TR_RXR_BLA_Agonist_Followup_ratio, aeid 2253); assay type: cell-based; details: for tr-followup-rxr-bla-agonist-1 hitc: hit call from tcpl; for Emax: read-out: EMax (% of Control) tr-followup-rxr-bla-agonist-1; for AC50: read-out: tr-followup-rxr-bla-agonist-1 AC50
T3 construct: host or cells: GeneBLAzer UAS-bla HEK 293T
T3 sequence (P19793 227-458 limits assumed): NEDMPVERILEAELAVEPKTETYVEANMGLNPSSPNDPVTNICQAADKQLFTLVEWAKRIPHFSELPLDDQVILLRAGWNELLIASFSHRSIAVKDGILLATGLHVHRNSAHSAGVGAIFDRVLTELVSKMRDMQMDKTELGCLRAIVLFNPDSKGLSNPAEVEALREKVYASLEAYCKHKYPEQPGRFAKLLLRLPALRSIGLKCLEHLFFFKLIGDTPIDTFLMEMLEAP

[9] = biological target: T2, human TRβ ligand-binding domain; test: TRb-coa LanthaScreen TR-FRET coactivator (SRC-2 peptide) recruitment, agonist (TOX21_TRB_COA_Agonist_Followup_ratio, aeid 2244); assay type: biochemical; set-up: host or cells: GeneBLAzer UAS-bla HEK 293T; details: for AC50 / TRb-coa hitc: agonist; for AC50: read-out: TRb-coa AC50; for TRb-coa hitc: hit call from tcpl; for Emax: read-out: EMax (% of Control) trb-coa-agonist-followup-1
[10] = tested on: thyroid hormone receptor (endogenous TRα and TRβ); test: GH3-TRE-Antag primary qHTS, luciferase reporter, antagonist mode with 1 nM T3 (TOX21_TR_LUC_GH3_Antagonist, aeid 804); assay type: cell-based, rat
[11] = Rattus norvegicus, read-out: TR_LUC_GH3_Antagonist_viability AC50 (uM)

| Structure (SMILES) | Categorization Code [1] | AC50 (GH3-TRE-Luc cell line [2]; [11]) | EMax (% of Control) gh3-tre-agonist-followup-1_agonist [3] | GH3-TRE-Ag-Followup hitc [3] | AC50 [3] | TR_LUC_GH3_Antagonist_viability hitc (GH3-TRE-Luc cell line [4]; rat, 24 h) | GLOBAL CYTOTOXICITY cytotox.median [5] | GLOBAL CYTOTOXICITY cytotox.number_Active [5] | EMax (% of Control) gh3-tre-agonist [6] | GH3-TRE-Ag AC50 hitc [6] | AC50 [7] | TRa-coa hitc [7] | Emax [7] | AC50 [8] | TRb-bla hitc [8] | Emax [8] | CC50 at 24 h (in vitro; AC50 (uM) modified / 1000) | tr-followup-rxr-bla-agonist-1 hitc (human RXRα) | AC50 (human RXRα) | TRb-coa hitc [9] | also measured |
| --- | --- | --- | --- | --- | --- | --- | --- | --- | --- | --- | --- | --- | --- | --- | --- | --- | --- | --- | --- | --- | --- |
| NCC(=O)CCC(=O)O [Aminolevulinic acid hydrochloride] | FP | > 92 µM | 43.5 % of Control | 1 | 22.5 µM | 0 | >92 | 0 | 29.9 % of Control | 1 | > 92 µM | 0 | 1.1% | > 92 µM | 0 | 12.7% | > 50 µM | 0 | > 92 µM | 0 | Emax (human RXRα): 13%; AC50 [9]: > 92 µM; Emax [9]: 3.6% |
| C[C@H](CCC(=O)NCC(=O)O)[C@H]1CC[C@H]2[C@@H]3[C@H](O)C[C@@H]4C[C@H](O)CC[C@]4(C)[C@H]3C[C@H](O)[C@]12C [glycocholic acid] | Equivocal RXR-Ag | > 92 µM | 34.6 % of Control | 0 | – | 0 | – | 0 | 27.2 % of Control | 1 | > 92 µM | 0 | -0.137% | > 92 µM | 0 | 14.8% | – | 0 | > 92 µM | 0 | GLOBAL CYTOTOXICITY cytotox.median ([5]; median over Tox21 viability assays): >92; activity in GH3-TRE agonist assay [6]: active; Emax (human RXRα): -1.3%; AC50 [9]: > 92 µM; Emax [9]: -0.225% |
| CCN(CC)C(=O)N[C@@H]1C=C2c3cccc4[nH]cc(c34)C[C@@H]2N(C)C1 [(-)-(5S,8R)-Lisuride] | – | – | – | – | – | – | – | – | – | – | – | – | – | – | – | – | – | – | – | – | resp_max GH3-TRE-Via (GH3-TRE-Luc cell line [2]; Table S8): 42.3; resp_max GH3-TRE-Antag ([10]; Table S8): 34.7 |
| COc1ccc(OC)c(C(O)C(C)N)c1 (centres unmarked) [Methoxamine hydrochloride] | FP | > 92 µM | 29.2 % of Control | 1 | 23.4 µM | 0 | >92 | 0 | 25.7 % of Control | 1 | > 92 µM | 0 | 0.282% | > 92 µM | 0 | 7.9% | > 50 µM | 0 | > 92 µM | 0 | Emax (human RXRα): -0.7%; AC50 [9]: > 92 µM; Emax [9]: 1.5% |
| CCc1cc(OC)c(C[C@@H](C)N)cc1OC [(-)-2,5-Dimethoxy-4-ethylamphetamine hydrochloride] | – | – | – | – | – | – | – | – | – | – | – | – | – | – | – | – | – | – | – | – | resp_max GH3-TRE-Via (GH3-TRE-Luc cell line [2]; Table S8): 62.2; resp_max GH3-TRE-Antag ([10]; Table S8): 85.7 |
| N[C@@H](Cc1ccc(Oc2cc(I)c(O)c(I)c2)c(I)c1)C(=O)O [3,3',5'-Triiodo-L-thyronine] | TR-Ag | – | 87.2 % of Control | 1 | 0.537 µM | – | >92 | 0 | 111.6 % of Control | 1 | – | 1 | – | – | 1 | – | – | 0 | > 92 µM | 1 | AC50 (GH3-TRE-Luc cell line [2]; read-out: TR_LUC_GH3_Antagonist_viability AC50): > 92 µM; TR_LUC_GH3_Antagonist_viability hitc (GH3-TRE-Luc cell line [4]): 0; EMax (% of Control) tra-coa-agonist-followup-1 [7]: 152.6 % of Control; EMax (% of Control) trb-bla-agonist-followup-1 [8]: 93.8 % of Control; EMax (% of Control) tr-followup-rxr-bla-agonist-1 (human RXRα): 17.4 % of Control; EMax (% of Control) trb-coa-agonist-followup-1 [9]: 117.6 % of Control |
| O=C1NCN(c2ccccc2)C12CCN(CCCOc1ccc(F)cc1)CC2 [AMI-193, reference compound] | – | – | – | – | – | – | – | – | – | – | – | – | – | – | – | – | – | – | – | – | AC50 (GH3-TRE-Luc cell line [2]; read-out: GH3-TRE-Via AC50, inactive samples arbitrarily set to AC50=[…] μM): 14.1 µM; AC50 ([10]; antagonist mode, 1 nM T3, read-out: GH3-TRE-Antag AC50): 15.8 µM; AC50 ([6]; antagonist candidates, inactive samples arbitrarily set to AC50=[…] μM): > 92 µM |
| CC[C@H](O)C(C[C@H](C)N(C)C)(c1ccccc1)c1ccccc1 [(-)-alpha-Methadol hydrochloride] | – | – | – | – | – | – | – | – | – | – | – | – | – | – | – | – | – | – | – | – | resp_max GH3-TRE-Via (GH3-TRE-Luc cell line [2]; Table S8): 67.0; AC50 (GH3-TRE-Luc cell line [2]; read-out: Average AC50 GH3-TRE-Via, Table S8, inactive set to 1000): 43.2 µM; resp_max GH3-TRE-Antag ([10]; Table S8): 76.3; AC50 ([10]; Table S8, read-out: Average AC50 (uM) GH3-TRE-Antag): 58 µM; CC50 at 24 h (in vitro; AC50 (uM) modified / 1000, Tox21_110001=Tox21_112827, viability, 1 nM T3 present, 24 h): 43.2 µM |
| CC(C)(c1ccc(O)cc1)c1ccc(O)cc1 [BPA, bisphenol A] | – | – | – | – | – | – | – | – | – | – | – | – | – | – | – | – | > 90 µM | – | – | – | activity in GH3-TRE antagonist mode assay [10]: active in suppressing the TR transactivation assay |
| O=c1[nH]cnc2c1ncn2[C@H]1CC[C@@H](CO)O1 [2',3'-Dideoxyinosine] | FP | > 92 µM | 78.5 % of Control | 1 | 3.46 µM | 0 | >92 | 0 | 1.6 % of Control | 0 | > 92 µM | 0 | -0.5% | 3.46 µM | 1 | 74.4% | > 100 µM | 0 | > 92 µM | 0 | AC50 [6]: > 92 µM; Emax (human RXRα): -0.6%; AC50 [9]: > 92 µM; Emax [9]: -0.448% |
